The test deals with human α7 receptor (Homo sapiens, UniProt P36544). The experiment in a line: α7 NNR flux assay (FDSS Ca assay). Format: cell-based. The following applies: positive allosteric modulation; rat GH4C1 cell line stably expressing human α7; acetylcholine 20 μM; % modulation relative to PNU-120596 set to 100%. As for the experimental part: In this version of the assay, the human α7 receptor is stably expressed in the rat GH4C1 cell line. The assay was used to identify positive allosteric modulators (PAMs) of the α7 receptor. Activation of the channel was measured by loading cells with the calcium-sensitive fluorescent dye Calcium-4 (Assay kit from Molecular Devices), and then measuring real-time changes in fluorescence upon treatment with test compounds.
human α7 receptor, sequence (P36544 23-502): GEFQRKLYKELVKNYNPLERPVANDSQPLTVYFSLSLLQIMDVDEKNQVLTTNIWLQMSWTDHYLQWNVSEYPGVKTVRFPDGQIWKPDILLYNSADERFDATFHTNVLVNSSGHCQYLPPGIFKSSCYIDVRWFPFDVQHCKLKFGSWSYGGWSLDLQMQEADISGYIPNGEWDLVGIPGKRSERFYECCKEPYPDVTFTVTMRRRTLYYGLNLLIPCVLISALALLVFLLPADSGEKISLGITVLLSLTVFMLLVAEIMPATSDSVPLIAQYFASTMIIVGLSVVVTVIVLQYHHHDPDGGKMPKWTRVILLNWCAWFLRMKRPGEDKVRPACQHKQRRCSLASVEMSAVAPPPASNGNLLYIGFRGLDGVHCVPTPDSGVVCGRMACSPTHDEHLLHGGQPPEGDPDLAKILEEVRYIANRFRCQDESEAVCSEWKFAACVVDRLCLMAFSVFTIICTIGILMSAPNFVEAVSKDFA
The cell line ChanClone GH4C1-nAChRalpha7 from Genionics was seeded from frozen stock in 384-well plates in culture media 2-3 days before experiment to form an approximately 80% confluent layer on the day of experiment.
The cell culture were split into “22.5 cm×22.5 cm”-plates with approximately 100×10^3 cells/cm^2. After four days incubation in a humidified incubator at 37° C. and 5% CO2, it had grown to an 80-90% confluent layer, and the cells were harvested.
Two or three days before the experiment the cells were seeded in 384 well plates from Greiner bio-one (781946, CELLCOAT, Poly-D-Lysine, black, μClear).
The cells were seeded in 384 well plates with 30 μL/well (30000 cells/well) while stirring the cell suspension or otherwise preventing the cells from precipitating. The plates were incubated at room temperature for 30-45 minutes. The plates were placed in incubator for two days (37° C. and 5% CO2).
The loading buffer was 5% v/v Calcium-4 Kit and 2.5 mM Probenecid in assay buffer.
Culture media were removed from the cell plates and 20 μL loading buffer was added in each well. The cell plates were placed in trays and incubated 90 minutes in the incubator (37° C.). Thereafter the plates were incubated 30 minutes at room temperature, still protected from light. Now the cell plates were ready to run in the Functional Drug Screening System (FDSS) The assay buffer was HBSS with 20 mM HEPES, pH 7.4 and 3 mM CaCl2.
200 nL 10 mM compound solution in DMSO was diluted in 50 μL assay buffer. The final test concentrations in the cell plates were 20-10-5-2.5-1.25-0.625-0.312-0.156-0.078-0.039 μM. Assay buffer and 3 μM PNU-120596 were used for control:
The agonist acetylcholine was added to a final concentration of 20 μM (˜EC100). In the FDSS7000 the Ex480-Em540 was measured with 1 second intervals. The baseline was made of 5 frames before addition of test compounds, and 95 frames more were made before addition of acetylcholine. The measurement stopped 30 frames after the 2nd addition. Raw data for each well were collected as “the maximum fluorescence count” in the interval 100-131 seconds and as “the average fluorescence count” in the interval 96-100 seconds. The positive allosteric modulation in the 2nd addition was the enhancement of agonist response with test compound compared to agonist alone.
Results were calculated as % modulation of test compound compared to the reference PNU-120596 set to 100%.

Structures are written as SMILES.

As to `Cc1cc2cc(CNC(=O)c3cc(C)oc3C)ccc2[nH]1` [Compound 7, 2,5-dimethyl-N-[(2-methyl-1H-indol-5-yl)methy]furan-3-carboxamide], the EC50 (in general, the concentration at which the effect is half-maximal) was 1.4 µM.

In turn, `Cc1cc(C(=O)N[C@@H](C)c2ccc3[nH]c(C)cc3c2)on1` [Compound 62, 3-methyl-N-[(1S)-1-(2-methyl-1H-indol-5-yl)ethyl]isoxazole-5-carboxamide] had an EC50 of 9.1 µM. In turn, `[2H]C([2H])([2H])c1cc2cc(CNC(=O)c3cc(CC(F)(F)F)no3)ccc2[nH]1` [Compound 78, N-[[2-(trideuteriomethyl)-1H-indol-5-yl]methyl]-3-(2,2,2-trifluoroethyl)isoxazole-5-carboxamide] yielded an EC50 of 0.61 µM. With `Cc1cc2cc(CNC(=O)c3ccc[nH]3)ccc2[nH]1` [Compound 14, N-[(2-methyl-1H-indol-5-yl)methyl]-1H-pyrrole-2-carboxamide], the EC50 came to 7.4 µM.

Compound `Cc1cc2cc(CNC(=O)c3coc(C)n3)ccc2[nH]1` [Compound 76, 2-methyl-N-[(2-methyl-1H-indol-5-yl)methyl]oxazole-4-carboxamide] returned an EC50 of 8.2 µM. `Cc1cc(C(=O)NCc2cc(C)c3[nH]ccc3c2)on1` [Compound 23, 3-methyl-N-[(7-methyl-1H-indol-5-yl)methyl]isoxazole-5-carboxamide] had an EC50 of 7.1 µM.

For the compound `Cc1cc(C(=O)NCc2cc3cc[nH]c3c(C)c2F)on1` [Compound 105, N-[(6-fluoro-7-methyl-1H-indol-5-yl)methyl]-3-methyl-isoxazole-5-carboxamide], the EC50 was 2.9 µM. The result for `Cc1cc2cc(CNC(=O)c3cc(CC(F)(F)F)no3)ccc2n1C(F)F` [Compound 70, N-[[1-(difluoromethyl)-2-methyl-indol-5-yl]methyl]-3-(2,2,2-trifluoroethyl)isoxazole-5-carboxamide] reads 9.4 µM; that for `COCCn1cc(C(=O)NCc2ccc3[nH]c(C)cc3c2)cn1` [Compound 100, 1-(2-methoxyethyl)-N-[(2-methyl-1H-indol-5-yl)methyl]pyrazole-4-carboxamide], 8.5 µM. `Cc1c(C(=O)NCc2ccc3[nH]ccc3c2)sc(=O)n1C` [Compound 59, N-(1H-indol-5-ylmethyl)-3,4-dimethyl-2-oxo-thiazole-5-carboxamide] had an EC50 of 7.7 µM. `Cc1noc(C(=O)NCc2ccc3[nH]c(C)cc3c2)n1` [Compound 119, 3-methyl-N-[(2-methyl-1H-indol-5-yl)methyl]-1,2,4-oxadiazole-5-carboxamide] had a concentration for a half-maximal effect (EC50) of 7.1 µM.

`O=C(NCc1ccc2c(ccn2C(F)F)c1)c1cnn(CC(F)(F)F)c1` [Compound 68, N-[[1-(difluoromethyl)indol-5-yl]methyl]-1-(2,2,2-trifluoroethyl)pyrazole-4-carboxamide] returned an EC50 of 2.1 µM. On to `[2H]C([2H])([2H])c1cc2cc(CNC(=O)c3cnn(CC(F)(F)F)c3)ccc2[nH]1` [Compound 82], for which the EC50 is 0.98 µM.

Regarding `Cc1cc(C(=O)NC(C)c2ccc3[nH]c(C)cc3c2)on1` (racemic) [Compound 33, 3-methyl-N-[1-(2-methyl-1H-indol-5-yl)ethyl]isoxazole-5-carboxamide], the EC50 was 2.63 µM. Compared with the last compound, the EC50 is about 2.7-fold higher. In the case of `[2H]C([2H])([2H])c1cc2cc(CNC(=O)c3cc(C)no3)ccc2[nH]1` [Compound 73, 3-methyl-N-[[2-(trideuteriomethyl)-1H-indol-5-yl]methyl]isoxazole-5-carboxamide], a half-maximal response (EC50) required 2.8 µM.

Regarding `O=C(NCc1ccc2[nH]c(C(F)F)cc2c1)c1cc(CC(F)(F)F)no1` [Compound 93, N-[[2-(difluoromethyl)-1H-indol-5-yl]methyl]-3-(2,2,2-trifluoroethyl)isoxazole-5-carboxamide], it took 5.4 µM to reach a half-maximal effect (EC50). `Cc1cc(C(=O)NCc2ccc3[nH]c(C)cc3c2F)on1` [Compound 110, N-[(4-fluoro-2-methyl-1H-indol-5-yl)methyl]-3-methyl-isoxazole-5-carboxamide] came in with an EC50 of 6.5 µM. The EC50 values of the last two compounds are within 1.5-fold of each other. For `Cc1cc(C(=O)NCc2ccc3[nH]c(C)cc3c2)n(C)n1` [Compound 55, 2,5-dimethyl-N-[(2-methyl-1H-indol-5-yl)methyl]pyrazole-3-carboxamide] the value was 7.3 µM; for `Cc1cc(C(=O)NCc2cc(F)c3[nH]c(C)cc3c2)on1` [Compound 109, N-[(7-fluoro-2-methyl-1H-indol-5-yl)methyl]-3-methyl-isoxazole-5-carboxamide], 3.1 µM. The result for `Cc1cc(C(=O)N[C@H](C)c2cc3cc(C)[nH]c3cc2F)on1` [Compound 102, N-[(1R)-1-(6-fluoro-2-methyl-1H-indol-5-yl)ethyl]-3-methyl-isoxazole-5-carboxamide] reads 1 µM. The compound `Cc1cc2cc(CNC(=O)c3c(C)noc3C)ccc2[nH]1` [Compound 27, 3,5-dimethyl-N-[(2-methyl-1H-indol-5-yl)methyl]isoxazole-4-carboxamide] registered an EC50 of 0.44 µM. As for `Cc1cc2cc(C(C)NC(=O)c3oncc3C)ccc2[nH]1` (racemic) [Compound 16, 4-methyl-N-[1-(2-methyl-1H-indol-5-yl)ethyl]isoxazole-5-carboxamide], it took 11 µM to reach a half-maximal effect (EC50).

Take `Cc1cc2cc(CNC(=O)c3ccn(CCF)n3)ccc2[nH]1` [Compound 94, 1-(2-fluoroethyl)-N-[(2-methyl-1H-indol-5-yl)methyl]pyrazole-3-carboxamide]: the EC50 was 9.5 µM. This EC50 and that of the compound before are within 1.5-fold of each other.

For the compound `Cc1cc2cc(CNC(=O)c3cccs3)ccc2[nH]1` [Compound 13, N-[(2-methyl-1H-indol-5-yl)methyl]thiophene-2-carboxamide], the EC50 is 0.53 µM.

The compound `O=C(NCc1ccc2c(ccn2C(F)F)c1)c1cc(CC(F)(F)F)no1` [Compound 72, N-[[1-(difluoromethyl)indol-5-yl]methyl]-3-(2,2,2-trifluoroethyl)isoxazole-5-carboxamide] displayed an EC50 of 7.6 µM. On to `Cc1cc2cc(CNC(=O)c3noc(C)n3)ccc2[nH]1` [Compound 77, 5-methyl-N-[(2-methyl-1H-indol-5-yl)methyl]-1,2,4-oxadiazole-3-carboxamide], for which the EC50 was found to be 10.5 µM. In the case of `Cc1cc(C(=O)NCc2ccc3c(c2)cc(C(F)(F)F)n3C)on1` [Compound 89, 3-methyl-N-[[1-methyl-2-(trifluoromethyl)indol-5-yl]methyl]isoxazole-5-carboxamide], the EC50 worked out at 5.6 µM. The compound `Cc1cc(C(=O)N[C@H](C)c2ccc3[nH]c(C)cc3c2F)on1` [Compound 53, N-[(1R)-1-(4-fluoro-2-methyl-1H-indol-5-yl)ethyl]-3-methyl-isoxazole-5-carboxamide] gave an EC50 of 6 µM. In the case of `Cc1cc(C(=O)NCc2ccc3[nH]cc(C)c3c2)on1` [Compound 17, 3-methyl-N-[(3-methyl-1H-indol-5-34)methyl]isoxazole-5-carboxamide], the response was half-maximal at 11 µM (EC50). As to `Cn1c(C(F)(F)F)cc2cc(CNC(=O)c3cc(CC(F)(F)F)no3)ccc21` [Compound 90, N-[[1-methyl-2-(trifluoromethyl)indol-5-yl]methyl]-3-(2,2,2-trifluoroethyl)isoxazole-5-carboxamide], a half-maximal response (EC50) required 5 µM. The result for `Cc1cc(C(=O)NCc2cc3cc[nH]c3cc2C)on1` [Compound 39, 3-methyl-N-[(6-methyl-1H-indol-5-yl)methyl]isoxazole-5-carboxamide] reads 9.1 µM. The compound `Cc1[nH]c2ccc(CNC(=O)c3cnn(CC(F)(F)F)c3)cc2c1C` [Compound 101, N-[(2,3-dimethyl-1H-indol-5-yl)methyl]-1-(2,2,2-trifluoroethyl)pyrazole-4-carboxamide] came in with an EC50 of 2.9 µM.

Compound `Cc1cc(C(=O)NC(C)c2ccc3[nH]ccc3c2)on1` (centres unmarked) [Compound 38, N-[1-(1H-indol-5-yl)ethyl]-3-methyl-isoxazole-5-carboxamide] had an EC50 of 5.9 µM. This EC50 is about 2-fold higher than that of the compound before. `Cc1cc2cc(CNC(=O)c3ocnc3C)ccc2[nH]1` [Compound 22, 4-methyl-N-[(2-methyl-1H-indol-5-yl)methyl]oxazole-5-carboxamide] showed an EC50 of 7.2 µM. The EC50 values of the last two compounds are within 1.5-fold of each other. As to `Cc1cc(C(=O)NCc2ccc3[nH]ccc3c2)on1` [Compound 58, N-(1H-indol-5-ylmethyl)-3-methyl-isoxazole-5-carboxamide], the response was half-maximal at 8.57 µM (EC50).

Values taken from patent publication US20120252853A1, “Positive allosteric modulators of nicotinic acetylcholine receptor” (H. Lundbeck A/S, priority 2011, published 2012).
